Test results: paper PMC5505701, “Somatostatin binds to the human amyloid β peptide and favors the formation of distinct oligomers” (eLife, 2017)
“Also recorded” adds a separate entry of the source.

Legend:
[1] = test system: SST14; experiment: SST14-dependent ThT incorporation in presence of Aβ1-42; format: biochemical, human
Excerpt: Figure 4. […] (A) Workflow of ThT-based aggregation assay. (B) Representative ThT fluorescence charts using synthetic Aβ1-42 alone or in combination with SST14 or negative control AVP peptides. […] Please see legend for experimental conditions. DOI: http://dx.doi.org/10.7554/eLife.28401.008 Figure 4—figure supplement 1. […] (A) Workflow of ThT-based aggregation assay. […] (B) Representative ThT fluorescence charts monitoring SST14-dependent ThT incorporation. […] DOI: http://dx.doi.org/10.7554/eLife.28401.009 [drawing 1] Figure 4—figure supplement 2. […] (A) Workflow of amylin-dependent ThT fluorecence assay in the presence or absence of SST14. (B) Representative ThT fluorescence charts monitoring amylin-dependent ThT incorporation. […] DOI: http://dx.doi.org/10.7554/eLife.28401.010 [drawing 2]
Assay procedures were largely based on a protocol described by Sarah Linse’s group ([Hellstrand et al., 2010]). […] The subsequent plate incubation proceeded at 37°C with shaking at 700 rpm for 4 of every 5 min in a microplate reader (CLARIOstar, BMG Labtech, Guelph, ON, Canada) for overall durations specified in individual figures. ThT fluorescence was measured every 5 min at excitation and emission wavelengths of 444 nm and 485 nm, respectively.

[2] = test system: tau phosphorylated at pSer202/pThr205 (AT8) and pThr231 (AT180) in primary hippocampal neurons; experiment: Primary hippocampal neuron tau phosphorylation assay (Western blot)
[3] = biological target: T1, Aβ1-42 (Homo sapiens, UniProt P05067); experiment: Negative stain electron microscopy of Aβ1-42 assemblies; format: biochemical; settings: 50 μM Aβ1-42 in PBS, with or without equimolar SST
T1 construct: purchased Anaspec, Inc. (Fremont, CA, USA) AS-24224; host or cells: synthetic peptide

[4] = biological target: T1, Aβ1-42; experiment: Western blot / silver stain detection of Aβ1-42 after incubation with SST14 or CST17; format: biochemical; settings: 18 hr incubation, 6E10 Western blot, Aβ1-42 alone or with SST14 or CST17
Procedure: Initially, we were interested in observing the influence of incubation time on sample composition (Figure 5B).

[5] = test system: Aβ; settings: ref Maftei et al., 2012; cited from earlier work
Excerpt: Although initially captured at pH 8.0, a widely-used pH for interactome analyses, owed to its wide-spread use in radioimmunoprecipitation assay (RIPA) buffer formulations, the oAβ-SST14 interaction was in subsequent validation ...

T1 sequence (P05067 672-713 limits assumed): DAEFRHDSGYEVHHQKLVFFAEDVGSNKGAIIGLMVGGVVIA

Substance	delay of SST14-dependent ThT incorporation by monomeric Aβ1-42 ([1]; 1 μM monomeric Aβ1-42, 250 μM SST14)	delay of SST14-dependent ThT incorporation by oligomeric Aβ1-42 ([1]; 1 μM pre-aggregated Aβ1-42, 250 μM SST14)	tau hyperphosphorylation by monomeric Aβ1-42 ([2]; monomeric Aβ1-42 (0 hr) alone, 24 hr exposure)	tau hyperphosphorylation by oligomeric Aβ1-42 ([2]; pre-aggregated (24 hr) Aβ1-42, 24 hr exposure, day 18 cultures, AT8 and AT180, listed as oAβ1-42)	assemblies observed by negative stain electron microscopy [3]	apparent molecular weight of HMM 6E10 signals [4]	Aβ binding epitope [5]
amyloid β peptide 1-42 [Aβ1-42]	Oligomeric, but not monomeric, Aβ1-42 interferes with SST14-dependent ThT incorporation	reliably delayed SST14-dependent ThT incorporation by several hours; also recorded: profound delay in SST14 aggregation-dependent ThT incorporation	not observed when monomeric Aβ1-42 was added to the cell culture medium alone	robust tau hyperphosphorylation was observed	characteristic amyloid fibrils	55-200 kDa	–
humanin: 21-24 amino acid peptide coded within the mitochondrial 16S ribosomal RNA gene	–	–	–	–	–	–	interacts with an Aβ binding epitope encompassing residues 17-28
